Source: US20240115534A1, “COMPOSITION FOR MUSCLE ENHANCEMENT AND USE OF SAME” (J-OIL MILLS, INC., priority 2021, published 2024)

Test system: mouse myoblast strain C2C12 (myotube cells)
Assay: Myotube area and maximum transverse diameter of C2C12 myotube cells (anti-MHC immunostaining, imaging analysis)
Format: cell-based
Details: for Maximum transverse diameter/myotube cell (%) Average value / Myotube area/field of view (%) Average value: two days, untreated control = 100%
Procedure: Cells of mouse myoblast strain C2C12 (ATCC catalog no. CRL-1772)
Proliferation culture medium: DMEM (high glucose) to which 10% FBS and 1% PS are added
Differentiation culture medium: DMEM (high glucose) to which 2% HS and 1% PS are added
The fatty acids indicated below were added to the culture medium so as to reach a concentration of 0.05 mM, 0.2 mM, or 0.5 mM. As a positive control, insulin-like growth factor (IGF-1) (made by Sigma-Aldrich Co., LLC), which is a factor for promoting formation of myotube cells, was added to the culture medium so as to reach a concentration of 10 ng/mL.
The fatty acids were dissolved in dimethyl sulfoxide (DMSO) (made by Nacalai Tesque Inc.) to formulate solutions having a concentration of 0.05 M, 0.2 M, 0.5 M, or 1 M, and the solutions were added in 1/1000 amounts to the culture medium to reach a target final concentration of 0.05 mM, 0.2 mM, 0.5 mM, or 1 mM. The IGF-1 serving as a positive control was formulated to a concentration of 10 μg/mL using 0.1 N HCl, and the resultant solution was added in a 1/1000 amount to the culture medium to reach a target final concentration of 10 ng/mL.
The C2C12 cells were recovered in a T75 flask using the proliferation culture medium and cultured using a CO2 incubator (37° C., 5% CO2, moist; same applies below). The culture medium was replaced at intervals of one to two days. The cells were peeled away (3 to 5 minutes) using 0.25% trypsin-EDTA (made by Nacalai Tesque Inc.) (1 mL) at the point in time when 80% confluence was reached, and 5 mL of culture medium was added, after which the components were centrifuged (180×g, 5 minutes, room temperature). A supernatant was removed, and cell pellets were suspended in fresh culture medium and sown in a 96-well black plate at a rate of 10,000 cells/0.1 mL/well. The next day, the culture medium was replaced with the differentiation culture medium, and culturing was carried out for two days to induce differentiation into myotube cells. The culture medium was then replaced with differentiation culture medium (100 μL) to which the substance under test was added, and culturing was carried out for a further two days.
After treatment with the substance under test, the wells were refilled with 100 μL of a fixing solution (4% PFA: paraformaldehyde (made by Nacalai Tesque Inc.)), incubated for 15 minutes at 4° C., and then washed three times using Dulbecco's Phosphate-Buffered Saline (DPBS) (made by Thermo Fisher Scientific Inc.). 100 μL of a blocking/membrane permeation liquid solution (0.3% TritonX/3% BSA/DPBS) was added, and the components were incubated for 30 minutes at room temperature. The aforementioned solution replaced with a primary antibody solution (primary antibody reagent (diluted by a factor of 300)/3% BSA/DPBS) and then incubated overnight at 4° C. The primary antibody solution was removed, and the wells were washed three times using a blocking solution (3% BSA/DPBS) before being refilled with a secondary antibody solution (secondary antibody reagent (diluted by a factor of 500)/0.1% nucleus-staining reagent/3% BSA/DPBS) and incubated for two hours at room temperature. Finally, the wells were washed three times using DPBS and refilled with new DPBS before imaging analysis was carried out.
An automatic cell image system (“Operetta CLS,” made by PerkinElmer Inc.) was used in the imaging analysis of the immunostained cells. Nine fields of view of central sections of the wells were imaged using a 10× objective lens, and then fluorescent regions marked by the anti-MHC antibodies and cell nucleus regions marked by the nucleus-staining reagent were detected using image analysis software (Harmony 4.6) included with the system. […]

[1] = Table 1 data, 0.5 mM, vs comparative example 1-1, Dunnett's test, 5%
[2] = Table 2 data, 0.2 mM, vs comparative example 2-1
[3] = Table 2 data, 0.5 mM, vs comparative example 2-1
[4] = Table 3 data, 0.5 mM, vs comparative example 3-1

CCCCCCCCCCCCCCCCC(=O)O [Heptadecanoic acid (C17:0), Heptadecanoic acid, reference compound]
Maximum transverse diameter/myotube cell (%) Average value (Table 1, 0.5 mM, n=5): 98.4%
Myotube area/field of view (%) Average value (Table 1, 0.5 mM, n=5): 82.8%
area of the myotube cells within the fields of view, change versus control (in words) [1]: significantly decreased

CCCCCCCCCCCCCCCC(=O)O [Hexadecanoic acid (C16:0), Hexadecanoic acid, reference compound]
Maximum transverse diameter/myotube cell (%) Average value (Table 4, 0.05 mM): 98.7%
Myotube area/field of view (%) Average value (Table 4, 0.05 mM): 91.4%
Maximum transverse diameter/myotube cell (%) Average value (Table 4, 0.5 mM): 104.9%
Myotube area/field of view (%) Average value (Table 4, 0.5 mM): 80.9%
per-cell maximum transverse diameter of the myotube cells, effect (in words) (Table 4 data, 0.05 mM): no effect
per-cell maximum transverse diameter of the myotube cells, effect (in words) (Table 4 data, 0.5 mM): no effect
area of the myotube cells within the fields of view, change versus control (in words) (Table 4 data, 0.5 mM, vs comparative example 4-1): significantly decreased

CCCCCCCCCCCCCCC(=O)O [Pentadecanoic acid (C15:0), Pentadecanoic acid]
Maximum transverse diameter/myotube cell (%) Average value (Table 1, 0.5 mM, n=5): 132.2%
Myotube area/field of view (%) Average value (Table 1, 0.5 mM, n=5): 116.0%
area of the myotube cells within the fields of view, change versus control (in words) [1]: significantly increased
per-cell maximum transverse diameter of the myotube cells, change versus control (in words) [1]: significantly increased
Maximum transverse diameter/myotube cell (%) Average value (Table 2, 0.05 mM): 103.0%
Myotube area/field of view (%) Average value (Table 2, 0.05 mM): 108.0%
Maximum transverse diameter/myotube cell (%) Average value (Table 2, 0.2 mM): 109.3%
Myotube area/field of view (%) Average value (Table 2, 0.2 mM): 119.3%
Maximum transverse diameter/myotube cell (%) Average value (Table 2, 0.5 mM): 111.4%
Myotube area/field of view (%) Average value (Table 2, 0.5 mM): 118.7%
per-cell maximum transverse diameter of the myotube cells, change versus control (in words) (Table 2 data, 0.05 mM, vs comparative example 2-1): significantly increased
area of the myotube cells within the fields of view, change versus control (in words) [2]: significantly increased
per-cell maximum transverse diameter of the myotube cells, change versus control (in words) [2]: significantly increased
area of the myotube cells within the fields of view, change versus control (in words) [3]: significantly increased
per-cell maximum transverse diameter of the myotube cells, change versus control (in words) [3]: significantly increased

CCCCCCCCCCCCCC(=O)O [Tetradecanoic acid (C14:0), Tetradecanoic acid]
Maximum transverse diameter/myotube cell (%) Average value (Table 3, 0.5 mM): 108.6%
Myotube area/field of view (%) Average value (Table 3, 0.5 mM): 114.7%
Maximum transverse diameter/myotube cell (%) Average value (Table 3, 1 mM): 124.4%
Myotube area/field of view (%) Average value (Table 3, 1 mM): 107.3%
area of the myotube cells within the fields of view, change versus control (in words) [4]: significantly increased
per-cell maximum transverse diameter of the myotube cells, change versus control (in words) [4]: significantly increased
per-cell maximum transverse diameter of the myotube cells, change versus control (in words) (Table 3 data, 1.0 mM, vs comparative example 3-1): significantly increased

CCCCCCCCCCCCC(=O)O [Tridecanoic acid (C13:0), Tridecanoic acid]
Maximum transverse diameter/myotube cell (%) Average value (Table 1, 0.5 mM, n=5): 124.1%
Myotube area/field of view (%) Average value (Table 1, 0.5 mM, n=5): 98.1%
per-cell maximum transverse diameter of the myotube cells, change versus control (in words) [1]: significantly increased

CCCCCCCCCCC(=O)O [Undecanoic acid (C11:0), Undecanoic acid, reference compound]
Maximum transverse diameter/myotube cell (%) Average value (Table 1, 0.5 mM, n=5): 103.1%
Myotube area/field of view (%) Average value (Table 1, 0.5 mM, n=5): 103.4%
effect on the myotube cells (in words) (Table 1 data, 0.5 mM): no effect

IGF-1: insulin-like growth factor (IGF-1), a factor for promoting formation of myotube cells; positive control at 10 ng/mL
Maximum transverse diameter/myotube cell (%) Average value (Table 1, 10 ng/mL): 101.8%
Myotube area/field of view (%) Average value (Table 1, 10 ng/mL): 114.1%
Maximum transverse diameter/myotube cell (%) Average value (Table 2, 10 ng/mL): 99.1%
Myotube area/field of view (%) Average value (Table 2, 10 ng/mL): 126.8%
Maximum transverse diameter/myotube cell (%) Average value (Table 3, 10 ng/mL): 100.4%
Myotube area/field of view (%) Average value (Table 3, 10 ng/mL): 120.5%
Maximum transverse diameter/myotube cell (%) Average value (Table 4, 10 ng/mL): 104.8%
Myotube area/field of view (%) Average value (Table 4, 10 ng/mL): 132.8%
